Assay results taken from article PMC5281058 (Journal of the American Chemical Society, 2015).
Where two headings read alike, the source gives them in different places. Each block holds one compound with its values, some of them ahead of it.

Tests used:
[1] = biological target: T1, adenosine deaminase (ADA) (Homo sapiens, UniProt P00813); conditions: conversion of ^thA to ^thI; ref 4b; cited from earlier work
T1 sequence (P00813 1-363): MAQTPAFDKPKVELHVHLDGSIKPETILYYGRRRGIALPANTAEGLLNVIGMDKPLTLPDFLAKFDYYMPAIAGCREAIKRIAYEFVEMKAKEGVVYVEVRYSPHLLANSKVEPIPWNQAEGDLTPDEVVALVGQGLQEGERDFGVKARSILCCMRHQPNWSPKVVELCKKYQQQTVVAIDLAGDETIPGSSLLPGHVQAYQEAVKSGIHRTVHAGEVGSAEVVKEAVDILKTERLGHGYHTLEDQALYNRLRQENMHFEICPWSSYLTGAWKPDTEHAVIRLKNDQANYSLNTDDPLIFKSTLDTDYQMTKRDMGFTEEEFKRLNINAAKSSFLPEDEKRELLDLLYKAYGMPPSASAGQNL

[2] = biological target: T1, adenosine deaminase (ADA); assay type: biochemical; conditions: for reaction half-life t1/2 of deamination by ADA: calculated assuming a pseudo-first order reaction, real-time absorption; for deamination rate by ADA (in words): real-time continuous measurements, compared with A to I
[3] = cited from earlier work

SMILES: Nc1ncnc2c([C@@H]3O[C@H](CO)[C@@H](O)[C@H]3O)scc12 [^thA]
enzymatic conversion by ADA, times slower compared to adenosine [1]: approximately 20 times
reaction half-life t1/2 of deamination by ADA [2]: 818 s
deamination rate by ADA (in words) [2]: sluggish

SMILES: Nc1nc2c(ncn2[C@@H]2O[C@H](CO)[C@@H](O)[C@H]2O)c(=O)[nH]1 [guanosine]
pKa (N7) ([3]; reported values for guanosine, first value): 3.2–3.3
pKa (N1) ([3]; reported values for guanosine, second value): 9.2–9.6

SMILES: O=c1ccn([C@@H]2O[C@H](CO)[C@@H](O)[C@H]2O)c(=O)[nH]1 [uridine]
pKa (N3 deprotonation) ([3]; values reported for N3 deprotonation in uridine): 9.20–9.25

The next lines start with results.

reaction half-life t1/2 of deamination by ADA [2]: 39 s
deamination rate by ADA (in words) [2]: at the same rate as it deaminates A to I
SMILES: Nc1ncnc2c([C@@H]3O[C@H](CO)[C@@H](O)[C@H]3O)snc12 [^tzA]

half-life ([2]; adenosine deaminase (ADA) enzyme): 57 s
SMILES: Nc1ncnc2c1ncn2[C@@H]1O[C@H](CO)[C@@H](O)[C@H]1O [adenosine]
pKa (N1) ([3]; reported values for adenosine): 3.6– 4.2
